Laboratory results published in PubChem BioAssay AID256 (DTP/NCI, 2004).
Values joined by “and” are separate entries in the source; they are usually repeats but may differ in a detail not shown here. Identical values can stand only once. Toxic doses and inconclusive results are not listed. The calls were made as follows: active = survival T/C of 150% or more; inactive = T/C below 125% in these data. Residues, ends and D or L forms follow the SMILES beside them. *: point of attachment. Trt = c1ccc(C(c2ccccc2)(c2ccccc2)*)cc1; Boc = CC(C)(C)OC(=O)*

Test system: CD2F1 mice, L1210 leukemia ip, survival T/C
Experiment: NCI In Vivo Anticancer Drug Screen. Data for tumor model L1210 Leukemia (intraperitoneal) in CD2F1 (CDF1) mice
Conditions: higher = longer survival
Summary of the method: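 Tumor-bearing mice (transplanted tumor) were split into treated and vehicle control groups, and the measured endpoint of each treated group was divided by that of its vehicle controls.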

[1] = endpoint: mean survival time, dose: 75.0 mg/kg/injection, schedule: Q01DX001 (ip), vehicle: saline with Tween-80
[2] = endpoint: mean survival time, dose: 150.0 mg/kg/injection, schedule: Q01DX001 (ip), vehicle: saline with Tween-80
[3] = endpoint: mean survival time, dose: 300.0 mg/kg/injection, schedule: Q01DX001 (ip), vehicle: saline with Tween-80
[4] = endpoint: mean survival time, dose: 25.0 mg/kg/injection, schedule: Q04DX003 (ip), vehicle: saline with Tween-80
[5] = endpoint: mean survival time, dose: 50.0 mg/kg/injection, schedule: Q04DX003 (ip), vehicle: saline with Tween-80
[6] = endpoint: mean survival time, dose: 100.0 mg/kg/injection, schedule: Q04DX003 (ip), vehicle: saline with Tween-80
[7] = endpoint: mean survival time, dose: 200.0 mg/kg/injection, schedule: Q04DX003 (ip), vehicle: saline with Tween-80
[8] = endpoint: mean survival time, dose: 400.0 mg/kg/injection, schedule: Q04DX003 (ip), vehicle: saline with Tween-80

Measured: T/C

CC(=O)Nc1ccc(CCc2nc(NC(C)=O)nc(Cl)c2-c2ccc(Cl)c(Cl)c2)cc1
inactive: [1] 103 % of control | [2] 101 % of control | [3] 94 % of control

c1ccc2snnc2c1
inactive: endpoint: mean survival time, dose: 100.0 mg/kg/injection, schedule: Q01DX001 (ip), vehicle: other 97 % of control | endpoint: mean survival time, dose: 200.0 mg/kg/injection, schedule: Q01DX001 (ip), vehicle: other 103 % of control | endpoint: mean survival time, dose: 400.0 mg/kg/injection, schedule: Q01DX001 (ip), vehicle: other 88 % of control

CC(C)C(C)CCC(C)C1CCC2=C3CCC4CC(O)CCC4(C)C3CCC21C (stereo not given)
inactive: [1] 89 % of control | [2] 92 % of control | [3] 100 % of control

CN(C)CCCN1c2ccccc2Sc2ccc(C(F)(F)F)cc21
inactive: endpoint: mean survival time, dose: 12.5 mg/kg/injection, schedule: Q01DX009 (ip), vehicle: saline 106 % of control | endpoint: mean survival time, dose: 12.5 mg/kg/injection, schedule: Q04DX003 (ip), vehicle: saline 100 % of control | endpoint: mean survival time, dose: 16.5 mg/kg/injection, schedule: Q01DX009 (ip), vehicle: saline with Tween-80 103 % of control | endpoint: mean survival time, dose: 25.0 mg/kg/injection, schedule: Q01DX001 (ip), vehicle: saline 100 % of control | endpoint: mean survival time, dose: 25.0 mg/kg/injection, schedule: Q01DX009 (ip), vehicle: saline with Tween-80 88 % of control | endpoint: mean survival time, dose: 25.0 mg/kg/injection, schedule: Q01DX009 (ip), vehicle: saline 120 % of control | endpoint: mean survival time, dose: 25.0 mg/kg/injection, schedule: Q04DX003 (ip), vehicle: saline 115 % of control | endpoint: mean survival time, dose: 37.5 mg/kg/injection, schedule: Q01DX009 (ip), vehicle: saline with Tween-80 94 % of control | endpoint: mean survival time, dose: 50.0 mg/kg/injection, schedule: Q01DX001 (ip), vehicle: saline 104 % of control | endpoint: mean survival time, dose: 50.0 mg/kg/injection, schedule: Q04DX003 (ip), vehicle: saline 118 % of control

CC(C)(C)OC(=O)NCCCCC(NC(=O)CNC(=O)C(CSC(c1ccccc1)(c1ccccc1)c1ccccc1)NC(=O)OC(C)(C)C)C(=O)O (stereo not given) (Boc-Cys(Trt)-Gly-Lys(Boc)-OH; configuration not given here)
inactive: endpoint: mean survival time, dose: 100.0 mg/kg/injection, schedule: Q04DX003 (ip), vehicle: saline sonified 86 % of control

CCOC(=O)CCC(NC(=O)c1ccc(NCC2CCc3nc(N)[nH]c(=O)c3N2)cc1)C(=O)OCC (stereo not given)
inactive: endpoint: median survival time, dose: 10.0 mg/kg/injection, schedule: Q01DX005 (ip), vehicle: distilled water + Tween-80 97 % of control | endpoint: median survival time, dose: 20.0 mg/kg/injection, schedule: Q01DX005 (ip), vehicle: distilled water + Tween-80 102 % of control | endpoint: median survival time, dose: 40.0 mg/kg/injection, schedule: Q01DX005 (ip), vehicle: distilled water + Tween-80 100 % of control | endpoint: median survival time, dose: 80.0 mg/kg/injection, schedule: Q01DX005 (ip), vehicle: distilled water + Tween-80 96 % of control | endpoint: median survival time, dose: 160.0 mg/kg/injection, schedule: Q01DX005 (ip), vehicle: distilled water + Tween-80 100 % of control

COc1cc([N+](=O)[O-])c2nc(/C=N/NC(N)=S)ccc2c1
inactive: endpoint: mean survival time, dose: 100.0 mg/kg/injection, schedule: Q01DX001 (ip), vehicle: saline 89 % of control

COC12C(COC(N)=O)C3=C(C(=O)C(C)=C(NC4CONC4=O)C3=O)N1CC1NC12 (stereo not given)
inactive: endpoint: mean survival time, dose: 1.5 mg/kg/injection, schedule: Q01DX001 (ip), vehicle: water 97 % of control | endpoint: mean survival time, dose: 3.0 mg/kg/injection, schedule: Q01DX001 (ip), vehicle: water 98 % of control | endpoint: mean survival time, dose: 6.0 mg/kg/injection, schedule: Q01DX001 (ip), vehicle: water 95 % of control | endpoint: mean survival time, dose: 12.0 mg/kg/injection, schedule: Q01DX001 (ip), vehicle: water 98 % of control | endpoint: mean survival time, dose: 24.0 mg/kg/injection, schedule: Q01DX001 (ip), vehicle: water 97 % of control | endpoint: mean survival time, dose: 50.0 mg/kg/injection, schedule: Q01DX001 (ip), vehicle: distilled water + Tween-80 112 % of control | endpoint: mean survival time, dose: 100.0 mg/kg/injection, schedule: Q01DX001 (ip), vehicle: distilled water + Tween-80 114 % of control

COc1ccc(C(=O)/C=N/O)cc1
inactive: [4] 100 % of control | [5] 100 % of control | [6] 95 % of control and 98 % of control

CCCOC(=O)OCCC
inactive: [4] 102 % of control | [5] 96 % of control | endpoint: mean survival time, dose: 100.0 mg/kg/injection, schedule: Q01DX009 (ip), vehicle: saline with Tween-80 97 % of control | [6] 94 % of control | endpoint: mean survival time, dose: 200.0 mg/kg/injection, schedule: Q01DX009 (ip), vehicle: saline with Tween-80 95 % of control | [7] 94 % of control | endpoint: mean survival time, dose: 400.0 mg/kg/injection, schedule: Q01DX009 (ip), vehicle: saline with Tween-80 104 % of control | [8] 96 % of control

CC12CCC(C(CO)C1=O)C2(C)C (stereo not given)
inactive: endpoint: mean survival time, dose: 75.0 mg/kg/injection, schedule: Q01DX001 (ip), vehicle: saline 98 % of control | endpoint: mean survival time, dose: 150.0 mg/kg/injection, schedule: Q01DX001 (ip), vehicle: saline 98 % of control | endpoint: mean survival time, dose: 300.0 mg/kg/injection, schedule: Q01DX001 (ip), vehicle: saline 98 % of control

CCCCCCCCCCCCCCCC(=O)N(C/C=C/CN(C(=O)CCCCCCCCCCCCCCC)C(C)CCCN(CC)CC)C(C)CCCN(CC)CC (stereo not given)
inactive: endpoint: mean survival time, dose: 12.5 mg/kg/injection, schedule: Q01DX009 (ip), vehicle: other 97 % of control | endpoint: mean survival time, dose: 25.0 mg/kg/injection, schedule: Q01DX009 (ip), vehicle: other 94 % of control

O=C(O)CCC(NC(=O)OCc1ccccc1)C(=O)OCc1ccccc1 (stereo not given)
inactive: [6] 95 % of control | [7] 93 % of control | [8] 96 % of control

O=c1nc(N2CCOCC2)ccn1C1OC(CO)C(O)C1O (stereo not given)
inactive: endpoint: mean survival time, dose: 100.0 mg/kg/injection, schedule: Q01DX005 (ip), vehicle: water 104 % of control | endpoint: mean survival time, dose: 200.0 mg/kg/injection, schedule: Q01DX005 (ip), vehicle: water 101 % of control | endpoint: mean survival time, dose: 400.0 mg/kg/injection, schedule: Q01DX005 (ip), vehicle: water 107 % of control
